From US20140017893A1, “CMP POLISHING LIQUID AND METHOD FOR POLISHING SUBSTRATE USING THE SAME” (Hitachi Chemical Company, Ltd., priority 2007, published 2014)
≈ marks a conversion by molar mass, not a printed value.

Assay: Solubility of guanidine compounds in water, OECD Guideline 105 flask method
Format: physicochemical

`N=C(N)NN` [aminoguanidine] showed a solubility (water, thermodynamic from solid) of 50 mM (≈ 3700 µg/mL).

`Cc1ccccc1NC(=N)NC(=N)N` [o-Tolylbiguanide] gave a Solubility in water of 15 mM (≈ 2870 µg/mL).
